The test system of one assay is B51 breast tumors. Description: Limiting dilution assay of cancer stem cell frequency, B51 breast tumors. Format: in vivo, NOD-SCID mice. The text has this: Limiting dilution assays (LDAs) can be used to assess the effect of a Notch-binding agent on solid tumor cancer stem cells and on the tumorigenicity of a tumor comprising the cancer stem cells. The assays can be sued to determine the frequency of cancer stem cells in tumors from animals treated with the Notch-binding agent or other agent and to compare that frequency to the frequency of cancer stem cells in tumors from control animals.
An LDA was used to assess the effect on the tumorigenicity of the B51 breast tumors that were treated with the combination of control antibody (1B711) plus paclitaxel (Taxol) or treated with the combination of 59R1 and paclitaxel, as described above in Example 7. In addition, the effect of treatment of B51 breast tumors with the control antibody alone or 59R1 alone was also determined by LDA. The doses of antibodies and paclitaxel and the schedule of dosing for the control antibody group and the 59R1 group were the same as described in Example 7, above for the other two treatment groups. After three doses of antibodies and/or paclitaxel, tumors were harvested, processed and dissociated into single cells. The human tumor cells were isolated from the xenograft tumor cells by incubation with biotinylated mouse antibodies (α-mouse CD45-biotin1:200 dilution and rat α-mouse H2 Kd-biotin1:100 dilution, BioLegend, San Diego, Calif.) on ice for 30 min, followed by addition of streptavidin-labeled magnetic beads and removal of the mouse cells with the aid of a magnet. The human cells in the suspension were harvested and counted.
A serial titration of cells (30, 90, 270, and 810 cells) from each of the four treatment groups was injected in a 1:1 (v/v) mixture of FACS buffer and Matrigel into a new set of NOD-SCID mice (n=10/group). Tumors were allowed to grow for 72 days. The percentage of mice with detectable tumors was determined in all groups. The cancer stem cell frequency was then calculated using L-Calc™ software (StemCell Technologies Inc.; downloadable from www.stemcell.com/search/default.asp).

Assay [1] concerns breast tumor xenograft line OMP-B44. Briefly: OMP-B44 breast tumor xenograft growth. Format: in vivo, NOD/SCID mice. The conditions noted are these: established tumors, 15 mg/kg once a week. The method, then: The 59R1 IgG2 antibody was also tested in vivo in the breast tumor xenograft lines OMP-B34, OMP-B39, OMP-B44, PE13, and UM-T1, the pancreas tumor xenograft line OMP-PN8, and the colon tumor xenograft line OMP-C8. These tumor xenograft lines were established by adhering to procedures described in Al-Hajj et al., 2003, Proc. Natl. Acad. Sci. USA, 100:3983-3988. Female NOD/SCID immuno-compromised mice 7-10 weeks old were used for the establishment of the breast tumor xenografts and male NOD/SCID mice were used for the OMP-Pn8 and OMP-C8 tumor-models (Harlan, Indianapolis, Ind.). The 59R1 IgG2 antibody was also tested in vivo in a Colo-205 colon tumor xenograft model. Female immunodeficient bg/nu XID mice on a Swiss CD-1 background were used for the Colo-205 xenograft tumor model. In case of the breast cancer models, slow-releasing estrogen pellets (0.36 mg) had to be implanted. Mice were subcutaneously injected on the right flank with 50,000 (OMP-B34, OMP-B39, OMP-B44, PE13, and UM-T1) or 1×10^7 (Colo-205) viable cells, respectively, in a mixture of PBS (without magnesium or calcium) and Matrigel at a 1:1 ratio. […] Antibodies were administered weekly and tumors measured twice weekly. […] Tumor volume was calculated as described Al-Hajj et al. (2003). Data are expressed as the mean and the mean±S.E.M. Group means were compared using Student's two-tailed, unpaired t-test. […]

The test system of the next assay is stroma of PE13 tumors. Briefly: Microarray gene expression in stroma of treated xenograft tumors, PE13. Format: in vivo, mice. The settings on record: 59R1 vs control.
Assay [2] concerns hJAG2-induced Notch2 signaling. Description: Luciferase reporter assay, hJAG2-induced Notch2 signaling in Hela cells. The settings on record: 40 μg/ml. Format: cell-based, human. On the procedure:
Luciferase reporter assays were used to assay the 59R1 antibody for its ability to block hDLL4-, hJAG1-, and hJAG2-induced Notch2 signaling.
Hela cells that stably overexpress human Notch2 were transiently transfected with firefly luciferase with a synthetic 8×CBS promoter, pSPORT6 MAML-1, and Renilla luciferase-CMV as a transfection control. Cells were incubated with either 200 ng of immobilized hJAG1 (R&D systems) or hJAG2 (R&D systems) for 16 hours and then assayed using Dual-Glo (Promega) according to the manufacturer's instructions. 59R1 IgG2 antibody was at a concentration of 40 μg/ml. The gamma secretase inhibitor (GSI) dibenzazepine (DBZ) was used as a control at 1 μM.
On the technique in general: In a reporter assay the amount or activity of a reporter protein is the signal.

A further assay addresses human Notch2 (Homo sapiens, UniProt Q04721). Briefly: DLL4-Fc induced receptor activation in transfected PC3 cells, human Notch2. Format: cell-based. The arrangement: expressed in transfected cells. The conditions noted are these: immobilized DLL4-Fc. On the procedure: (§1) 59R5 was determined to have similar activity in blocking Notch2 and Notch3 signaling as 59R1. Receptor activation was determined in luciferase-based assays. PC3 tumor cells were transiently transfected with a human or mouse Notch receptor (human Notch2, murine Notch2, human Notch3, or murine Notch3) and […] inducible reporter construct. Transfected cells were incubated with different concentrations of 59R1 or 59R5 antibody in the presence of passively immobilized DLL4-Fc protein. Notch receptor activation was determined by measuring luciferase activity.

For another assay, the system named is murine Notch2. Description: DLL4-Fc induced receptor activation in transfected PC3 cells, murine Notch2. The format is cell-based, mouse. The conditions noted are these: immobilized DLL4-Fc. The method, then:
as §1

Setting [3] is: B51, combination of 59R1 and paclitaxel.

Sequence of human Notch2 (Q04721 26-2471): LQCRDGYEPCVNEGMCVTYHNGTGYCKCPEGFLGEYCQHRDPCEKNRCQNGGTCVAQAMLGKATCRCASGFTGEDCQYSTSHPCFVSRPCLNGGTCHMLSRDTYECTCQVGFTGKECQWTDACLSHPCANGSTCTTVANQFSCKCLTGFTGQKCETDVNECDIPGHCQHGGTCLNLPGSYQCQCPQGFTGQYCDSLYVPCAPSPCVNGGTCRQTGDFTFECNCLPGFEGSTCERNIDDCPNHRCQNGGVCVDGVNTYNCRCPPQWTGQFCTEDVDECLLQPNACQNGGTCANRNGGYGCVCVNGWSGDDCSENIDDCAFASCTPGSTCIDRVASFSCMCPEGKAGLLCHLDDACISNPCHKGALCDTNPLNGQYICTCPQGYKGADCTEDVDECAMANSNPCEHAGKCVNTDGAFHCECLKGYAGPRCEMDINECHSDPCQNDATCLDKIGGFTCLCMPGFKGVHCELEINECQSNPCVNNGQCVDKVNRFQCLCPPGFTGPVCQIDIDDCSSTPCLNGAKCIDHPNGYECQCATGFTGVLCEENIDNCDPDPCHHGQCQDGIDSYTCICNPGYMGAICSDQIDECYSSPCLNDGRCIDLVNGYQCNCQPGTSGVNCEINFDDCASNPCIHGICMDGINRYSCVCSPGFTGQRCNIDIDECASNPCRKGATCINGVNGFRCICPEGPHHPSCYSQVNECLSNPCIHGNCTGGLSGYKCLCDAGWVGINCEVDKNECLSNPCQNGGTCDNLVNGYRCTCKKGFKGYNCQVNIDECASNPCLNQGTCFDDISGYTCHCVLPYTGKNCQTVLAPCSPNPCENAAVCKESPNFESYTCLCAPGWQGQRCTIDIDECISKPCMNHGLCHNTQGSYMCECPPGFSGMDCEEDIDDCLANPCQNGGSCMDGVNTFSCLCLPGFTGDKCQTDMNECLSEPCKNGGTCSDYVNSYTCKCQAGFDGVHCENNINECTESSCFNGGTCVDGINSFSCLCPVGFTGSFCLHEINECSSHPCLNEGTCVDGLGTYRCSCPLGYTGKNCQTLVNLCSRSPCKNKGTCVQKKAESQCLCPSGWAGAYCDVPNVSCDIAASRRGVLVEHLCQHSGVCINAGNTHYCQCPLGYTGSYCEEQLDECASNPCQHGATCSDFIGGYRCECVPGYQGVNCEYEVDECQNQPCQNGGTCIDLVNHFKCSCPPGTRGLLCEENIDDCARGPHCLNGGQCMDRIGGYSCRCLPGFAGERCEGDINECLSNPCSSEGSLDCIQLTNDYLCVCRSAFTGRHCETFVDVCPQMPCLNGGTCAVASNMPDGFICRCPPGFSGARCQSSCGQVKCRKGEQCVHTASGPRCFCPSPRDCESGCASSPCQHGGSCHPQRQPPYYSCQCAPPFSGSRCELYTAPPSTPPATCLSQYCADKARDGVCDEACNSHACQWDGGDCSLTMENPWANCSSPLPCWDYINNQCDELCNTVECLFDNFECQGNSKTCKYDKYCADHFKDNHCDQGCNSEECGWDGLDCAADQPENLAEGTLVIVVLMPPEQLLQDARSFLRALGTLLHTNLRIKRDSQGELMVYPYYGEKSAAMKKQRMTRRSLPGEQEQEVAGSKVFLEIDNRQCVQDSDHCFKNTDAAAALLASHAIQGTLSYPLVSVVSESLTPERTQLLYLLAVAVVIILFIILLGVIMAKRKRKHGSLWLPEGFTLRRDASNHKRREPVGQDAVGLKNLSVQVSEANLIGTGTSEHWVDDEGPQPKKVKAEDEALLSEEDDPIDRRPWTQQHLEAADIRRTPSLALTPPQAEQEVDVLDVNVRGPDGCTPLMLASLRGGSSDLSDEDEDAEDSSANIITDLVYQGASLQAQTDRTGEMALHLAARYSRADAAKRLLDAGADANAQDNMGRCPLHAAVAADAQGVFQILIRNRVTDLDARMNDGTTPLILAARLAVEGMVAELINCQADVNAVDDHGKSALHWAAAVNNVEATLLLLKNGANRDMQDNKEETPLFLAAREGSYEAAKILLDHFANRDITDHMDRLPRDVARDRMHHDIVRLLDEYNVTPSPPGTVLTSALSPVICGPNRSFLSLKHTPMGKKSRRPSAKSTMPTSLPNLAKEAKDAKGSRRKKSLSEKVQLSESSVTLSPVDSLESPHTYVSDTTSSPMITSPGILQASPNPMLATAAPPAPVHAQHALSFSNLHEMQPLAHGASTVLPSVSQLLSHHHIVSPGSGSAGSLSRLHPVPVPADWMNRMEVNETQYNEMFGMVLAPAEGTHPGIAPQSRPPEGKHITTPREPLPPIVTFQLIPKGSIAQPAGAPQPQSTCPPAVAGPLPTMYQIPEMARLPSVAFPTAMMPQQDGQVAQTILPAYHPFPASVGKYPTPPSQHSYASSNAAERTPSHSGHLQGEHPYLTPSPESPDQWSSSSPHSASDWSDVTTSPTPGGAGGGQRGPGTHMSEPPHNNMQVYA

With “59R1: human IgG2 antibody binding Notch2 and Notch3; heavy and light chain SEQ ID NO:16 and 18; ATCC PTA-9547”, the “reduction of cancer stem cell frequency relative to the control” value in the assay on B51 breast tumors (B51, 59R1 alone) is recorded as “more than two-fold”. Also, in the assay with B51 breast tumors (setting [3]), the “reduction of cancer stem cell frequency relative to treatment with 59R1 alone” value was “more than two-fold”, the “reduction of cancer stem cell frequency relative to treatment with paclitaxel alone” value was “about twelve-fold” and the “reduction of cancer stem cell frequency relative to treatment with the control antibody” value is reported as “about 4.5 fold”. In assay [1], the “B44 breast cancer growth relative to control antibody” value was “inhibit breast cancer growth”. In the assay with stroma of PE13 tumors, the “Fold 1416286_at (Rgs4)” value is reported as −1.83, the “Fold 1417466_at (Rgs5)” value is on record as −4.03, the “Fold 1417714_x_at (Hba-al/Hba-a2)” value is −1.92 and the “Fold 1418829_a_at (Eno2)” value amounted to 1.54. Further, in the assay with stroma of PE13 tumors, the “Fold 1419302_at (Heyl)” value is listed as −1.77, the “Fold 1420872_at (Gucy1b3)” value is given as −3.06, the “Fold 1420941_at (Rgs5)” value was −2.99 and the “Fold 1420942_s_at (Rgs5)” value is −4.23. Moreover, in the assay with stroma of PE13 tumors, the “Fold 1421964_at (Notch3)” value is −1.91, the “Fold 1422789_at (Aldh1a2)” value was −2.17, the “Fold 1428361_x_at (Hba-al/Hba-a2)” value was −1.73 and the “Fold 1434141_at (Gucy1a3)” value is recorded as −4.18. In addition, in the assay with stroma of PE13 tumors, the “Fold 1449280_at (Esm1)” value came to 1.56, the “Fold 1449632_s_at (Fkbp10)” value was −1.63, the “Fold 1451501_a_at (Ghr)” value was −1.66 and the “Fold 1452590_a_at (Plac9)” value is −1.62. In addition, the “Fold 1459713_s_at (Tmem16a)” value in the assay with stroma of PE13 tumors was −7.28. Moreover, in assay [2], the “hJAG2-induced Notch2 reporter activity” value was “inhibit”.

Consider “59R5: human antibody that specifically binds human Notch 2 and human Notch 3; heavy and light chain SEQ ID NO:49 and 18; ATCC PTA-10170”, for which the “ligand-induced activation of human Notch2 receptor signaling” value in the assay with human Notch2 is “blocked”. Besides, the “ligand-induced activation of murine Notch2 receptor signaling” value in the assay with murine Notch2 is given as “blocked”.

These data come from US8226943B2, “Antibodies to notch receptors” (OncoMed Pharmaceuticals, Inc., priority 2008, dated 2012).
